Entries after “also recorded” stand apart in the source; their conditions may differ.
How the values were obtained:
[1] = patients who receive 5-FU for their disease; cited from earlier work
5-FU induced weight loss = assay: Protection from 5-FU induced weight loss by uridine alone or uridine plus TK-90; assay type: in vivo, CD-1 mice
Excerpt: Weight loss is one of the cardinal features of mucositis. […] Controls include PBS alone at times mimicking the time for 5-FU and combined uridine and TK-90 treatments. There were n=6 animals in all groups.

plasma citrulline = assay: Plasma citrulline after 5-FU (LC/MS/MS-Isotope assay), surrogate marker for mucositis; assay type: in vivo, C57BL/6 female mice; details: Day 3
Procedure: The chemotherapeutic challenge was diminished plasma citrulline by 5-FU treatment. The aim of this study was to explore whether a uridine phosphorylase inhibitor could prevent lowered plasma citrulline induced by 5-FU.
TK-90 solution was prepared at a concentration of 500 mg/mL in sterile PBS. Eight animals were used for Groups 1,2 and 3.
Osmotic pumps were placed inside the subcutaneous tunnel. Incision was sealed with Vetbond tissue adhesive and wound clips.
Blood collections were done to animals anesthetized with ketamine (ip 100 mg/kg). Whole blood (˜0.8 mL) was drawn through the retro-orbital sinus using a heparin coated micro-hematocrit tube and collected into a heparin microtainer tube. Blood samples were transferred into fresh 1.5 mL microcentrifuge tubes and centrifuged for 5 minutes at 10,000×g using an Eppendorf Minispin Plus stored in a 4° C. refrigerator. Following collection of the plasma samples, the animals were sacrificed on Day 3 by cervical dislocation and properly disposed. […]
Thawed plasma samples from the study were analyzed for citrulline using a published LC/MS/MS-Isotope assay. (Jones et al., Development and validation of a LC-MS/MS assay for quantitation of plasma citrulline for application to animal models of the acute radiation syndrome across multiple species,” Anal Bioanal Chem. (2014) 406(19):4663-75).

[2] = Side effects of TK-90 (clinical trials); details: in vivo
[3] = system: panel of cytokines and related biochemicals; assay: Plasma cytokine changes induced by 5-FU, multiplex ELISA on plasma of Experiment III; assay type: in vivo, C57BL/6 female mice; details: Day 3; 200 mg/kg 5-FU ip plus 6000 mg/kg TK-90 osmotic pump over 24 hours; vs 5-FU alone
Procedure: The chemotherapeutic challenge was cytokine changes induced by 5-FU treatment.
Plasma samples from Experiment III were analyzed for a panel of cytokines and related biochemicals by multiplex ELISA. […] IL-1B, TNF-α, and IL-6 are pro-inflammatory cytokines known to be elevated with mucositis. (Logan et al., “The role of pro-inflammatory cytokines in cancer treatment-induced alimentary tract mucositis: pathobiology, animal models and cytotoxic drugs,” Cancer Treat Rev. (2007) 33(5):448-60; Ong et al., “Pro-inflammatory cytokines play a key role in the development of radiotherapy-induced gastrointestinal mucositis,” Radiat Oncol. (2010) (16) 5:22). TK-90 reverses elevation of all three of these cytokines (FIGS. 5, 6 and 7). IL-2 is a pleiotropic cytokine that drives growth and activation of inflammatory cells such as T-cells, NK cells, etc. IL-9 and IL-15 signal through IL-2. TK-90 reverse the 5-FU induced elevation of all three of these cytokines (FIGS. 8, 9, and 10). IL-12 is a cytokine linked to generation of an immune response. Another cytokine associated with generation of an immune response is IL-5. TK-90 reverse the 5-FU induced elevation of IL-12 and IL5 (FIGS. 11, 12 and 13). IL-10 is a cytokine that plays a central role in limiting host immune response. TK-90 reverses the elevation of IL-10 induced by the 5-FU treatment possibly allowing an immune response to proceed to potentially clear damaged tissue (FIG. 14). GM-CSF and M-CSF both stimulate cell mediators of inflammation. TK-90 reverse the 5-FU induced elevation of both GM-CSF and […] (FIGS. 15 and 16). MIP-2, and KC are chemokines that function much like GM-CSF, and M-CSF to stimulate cell mediators of inflammation TK-90 reverse the 5-FU induced elevation of the chemokines (FIGS. 17 and 18). 5-FU decreases eotaxin, a chemokine that recruits immune-related mediators like eosinophils into inflammatory sites (FIG. 19). TK-90 reverses this decrease.

uridine = assay: Systemic uridine after administration of TK-90; assay type: in vivo
[4] = system: weight loss induced by 5-FU; details: 400 mg/kg 5-FU ip Day 0 plus 5333 mg/kg sc TK-90 by osmotic pump over 24 hours; compared to 5-FU alone
Procedure: The chemotherapeutic challenge was weight loss induced by 5-FU (FIG. 2). […] The aim of this study was to explore whether 5-FU combined with a uridine phosphorylase inhibitor provides protection from weight loss, a principal toxicity of 5-FU.
Groups of CD-1 female mice entrained to light:dark (12:12 hours), and given food and water ad libitum, were used for this experiment. The mean weight of the mice at the start of the experiment was approximately 20 g. Control mice were injected ip with sterile PBS, the vehicle control (Group 1). Group 2 and Group 3 mice were injected, ip, with 400 mg/kg 5-FU (Sigma) dissolved in PBS. A 24-hour osmotic pump (ALZET® micro-osmotic pump, Alza Co) was implanted into Group 3 animals. The pumps were loaded with 200 μL (2001D osmotic pump) of a 500 mg/mL solution of TK-90 (FIG. 2) in PBS. The TK-90 dose over the 24-hour infusion was 5333 mg/kg. The four animals were used for Group 1 and 8 animals were used for Groups 2 and 3.
For the implantation of the osmotic pump, animals were anesthetized with 100 mg/kg ketamine prior to pump implantation. […]
Animals were sacrificed on Day 5 by cervical dislocation and properly disposed. Animal weights were recorded daily for 6 days and the percent difference between Day 0 and Day 5 at termination was calculated.

[5] = cited from earlier work
[6] = man and animals; cited from earlier work

O=c1[nH]cc(F)c(=O)[nH]1 [Compound 5-FU, 5-flurouracil]
patients who develop mucositis [1]: Approximately 80%
percent change in weight Day 5 versus Day 0 (5-FU induced weight loss; 80 mg/kg 5-FU qdx5 ip alone, compared to PBS vehicle control): robust weight loss
plasma citrulline concentration (plasma citrulline; 200 mg/kg 5-FU ip alone, compared to PBS vehicle control): significant reduction in citrulline

Cc1cn2c(nc1=O)O[C@H]1[C@H](O)[C@@H](CO)O[C@H]12 [TK-90]
side effects [2]: no known side effects
plasma GM-CSF [3]: highly significantly different; also recorded: reverses the increase in plasma GM-CSF
plasma IL-1β [3]: reverses the increase in plasma IL-1β
plasma IL-2 [3]: reverses the increase in plasma IL-2
plasma IL-6 [3]: reverses the increase in plasma IL-6
plasma IL-9 [3]: highly significantly different; also recorded: reverses the increase in plasma IL-9
plasma IL-10 [3]: highly significantly different; also recorded: reverses the increase in plasma IL-10
plasma IL-12 (P40) [3]: highly significantly different; also recorded: reverses the increase in plasma IL-12 (P40)
plasma IL-12 (P70) [3]: highly significantly different; also recorded: reverses the increase in plasma IL-12 (P70)
plasma IL-15 [3]: highly significantly different; also recorded: reverses the increase in plasma IL-15
plasma KC (keratinocytes-derived chemokine) [3]: significantly different; also recorded: reverses the increase in plasma KC
plasma M-CSF [3]: reverses the increase in plasma M-CSF
plasma MIP-2 [3]: reverses the increase in plasma MIP-2
plasma TNF-α [3]: reverses the increase in plasma TNF-α
plasma eotaxin [3]: reverses the decrease in plasma eotaxin
systemic uridine (uridine): increases systemic uridine
percent change in weight Day 5 versus Day 0 (5-FU induced weight loss; 80 mg/kg 5-FU qdx5 ip with 750 mg/kg uridine and 120 mg/kg TK-90 bid, compared to 5-FU alone): protected from the weight loss
percent weight change on Day 5 versus Day 0 [4]: protected from the weight loss
plasma citrulline concentration (plasma citrulline; 200 mg/kg 5-FU ip plus 6000 mg/kg TK-90 by osmotic pump over 24 hours starting 4 hours post 5-FU, compared to 5-FU alone): reverses the decrease in plasma citrulline; also recorded: robust, statistically significant rebound in plasma citrulline

O=c1ccn([C@@H]2O[C@H](CO)[C@@H](O)[C@H]2O)c(=O)[nH]1 [uridine]
toxicity of continuous infusions of high-dose uridine ([5]; continuous infusion): high fever, cellulitis, and superior vena cava syndrome
toxicity of orally administered uridine ([5]; oral, high-dose, clinical studies): considerable GI dysfunction; also recorded: severe patient diarrhea, phlebitis and pyrogenic reactions
percent change in weight Day 5 versus Day 0 (5-FU induced weight loss; 80 mg/kg 5-FU qdx5 ip with 750 mg/kg uridine bid, compared to 5-FU alone): statistically significant but much less
half-life of administered uridine [6]: ~3 min
